Calls of active or inactive are those of the source.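 Rule for the calls: active = compounds giving half or more protection of infected cells from virus-caused growth loss, again on retest; inactive = the rest.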
Test system: CEM cells HIV-1 protection, formazan growth assay
Test: NCI AIDS Antiviral Assay
Settings: for IC50: measured here: growth of uninfected CEM cells
In short: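 Category rules: moderately active means at least 50% protection on retest, and confirmed active means 100% protection reproducibly. The underlying data came from a formazan growth assay in HIV-1-infected CEM cells.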

SMILES | EC50 | IC50 | outcome
CN1C(=O)C=C(C=Nc2ccc(-c3ccccc3)cc2)C2CCCCC21 (stereo unspecified) | > 200 µM | 2.29 µM | –
O=C(O)CN(CCN(CC(=O)O)CC(=O)O)CC(=O)O.[Ni+2] | > 200 µM | > 200 µM | –
CCc1cc(-c2nsc(=O)o2)c(S(=O)(=O)CC)s1 | > 200 µM | 93.3 µM | –
CC(C)(c1ccc(Oc2ccc(C#N)c(C#N)c2)cc1)c1ccc(Oc2ccc(C#N)c(C#N)c2)cc1 | > 10.7 µM | > 10.7 µM | –
c1ccc2c(c1)Nc1ccccc1[P+]21c2ccccc2Nc2ccccc21 | > 2 µM | 0.288 µM | –
NCCN(CCN)CCN | > 151 µM | > 151 µM | –
CN(C)CCCNC(=O)CCNC(=O)c1cc(NC(=O)c2cc(NC(=O)c3cc(NC(=O)CCCNC(=O)c4cc(NC(=O)c5cc(NC(=O)c6nccn6C)cn5C)cn4C)cn3C)cn2C)cn1C | – | – | inactive
O/N=C1/C(=C/c2ccc(Cl)c(Cl)c2)CCCC1C(NO)c1ccc(Cl)c(Cl)c1 (stereo unspecified) | > 3.16 µM | > 3.16 µM | –
CC(=O)NC1C(OCc2ccccc2)OC(CO)C(O)C1OC(C)C(=O)N[C@@H](C)C(=O)N[C@H](CCC(=O)OCCNc1c2ccccc2nc2cccc([N+](=O)[O-])c12)C(N)=O (stereo partly specified) | > 0.02 µM | 0.000339 µM | –
Cc1cc2c(cc1Cl)SC(NNC(=O)c1ccco1)=NS2(=O)=O | > 200 µM | > 200 µM | –
O=c1c(O)c(O)c(=O)c(=O)c1=O | – | – | inactive
C[C@@H]1CC(=O)[C@@]2(C)[C@](O)(CCC3O[C@]32C)[C@@]12CC(c1ccoc1)OC2=O (stereo partly specified) | > 200 µM | 30.9 µM | –
Cc1c(Cc2ccccc2)c(=O)oc2cc(O)ccc12 | > 97.7 µM | 93.3 µM | –
COC(Cc1ccccc1)NC(C)=O (stereo unspecified) | > 200 µM | 186 µM | –
COC(=O)c1c(C(=O)OC)c(C(=O)OC)c(C(=O)OC)c1C(=O)OC | – | – | inactive
COc1ccc(N2C(=O)CC(C3CC(C(C)(C)C)CCC3=O)C2=O)cc1 (stereo unspecified) | > 200 µM | > 200 µM | –
COc1ccc(N=Nc2c(C)c(C#N)c(=S)n(C3OC(CO)C(O)C(O)C3O)c2-c2ccccc2)cc1 (stereo unspecified) | > 200 µM | 28.2 µM | –
CC(=O)OC1OC2C(NC(=O)OC(C)(C)C)C1CC2(OCc1ccccc1)OCc1ccccc1 (stereo unspecified) | > 28.2 µM | > 28.2 µM | –
CC1=C(C#N)C2(C(=O)N(C)c3ccccc32)C(C#N)=C(C)N1 | > 324 µM | 27.5 µM | –
O=c1c(NCc2ccccc2)c(C2(c3ccccc3F)SCCCS2)c1=O | > 200 µM | 151 µM | –

SMILES | EC50 | IC50 | outcome
COc1ccc(/C=C2\c3cc(OC)c(OC)cc3CCN2C(=O)c2ccccc2)cc1OC | > 200 µM | 57.5 µM | –
CC(C)/C=C/C1=C(O)c2ccccc2C(=O)C1=O | – | – | inactive
CC(NNC(=O)c1ccncc1)c1ccc(F)cc1 (stereo unspecified) | > 200 µM | 12.3 µM | –
CN(C)CCC(CCN(C)C)=NOC(=O)c1ccccc1 | > 692 µM | > 692 µM | –
O=C1OC(c2ccccc2)=N/C1=C\c1ccc(Cl)cc1Cl | > 200 µM | 97.7 µM | –
CCCCCCCCCCCCCCCC1(OC)C[N+](C)(C)CCO1 (stereo unspecified) | > 200 µM | 1 µM | –
CCC(=O)OC1(c2ccccc2)CCN(CCC(=O)c2ccccc2)CC1C (stereo unspecified) | > 200 µM | 9.55 µM | –
Cc1c2ccccc2nc(CSC#N)[n+]1[O-] | > 200 µM | 36.3 µM | –
CN1C/C(=C\c2cccs2)C2=NN(c3ccccc3)C(c3cccs3)C2C1 (stereo unspecified) | > 200 µM | 10.7 µM | –
C[N+](C)(C)CC(=O)N/N=C(/C(=O)Nc1ccc(Br)cc1)C1C(=O)NC(=O)NC1=O | > 200 µM | > 200 µM | –
NC(=O)C12CC3CC(CC(F)(C3)C1)C2 | > 1260 µM | > 1260 µM | –
CC1(C)C=CC(C)(C)c2c(NS(=O)(=O)c3ccccc3)ccc(NS(=O)(=O)c3ccccc3)c21 | > 200 µM | 63.1 µM | –
CC1(O)Cn2c(nc3nccnc32)S1 (stereo unspecified) | > 603 µM | 31.6 µM | –
O=C(O)CC1CC2CC(=O)C1C2 (stereo unspecified) | > 200 µM | > 200 µM | –
COC(=O)C(NC(=O)C(C)NC(=O)OC(C)(C)C)C(C)O (stereo unspecified) | – | – | inactive
COC(=O)C(=O)OC1(C(C)=O)CC2(c3ccccc3)OC1(c1ccccc1)c1ccccc12 (stereo unspecified) | – | – | inactive
C=C(C)/C=C/C(O)[C@](C)(O)[C@H]1[C@H](O)C[C@@]2(C)[C@@H]3CCc4c(cc(OC5OC(CO)C(O)C(O)C5O)c(O)c4C)C3(C)C(=O)C[C@]12C (stereo partly specified) | > 200 µM | > 200 µM | –
CCN(CC)CCCC(C)Nc1cc(/C=C/c2ccc(Cl)cc2)nc2cc(N(C)C)ccc12 (stereo unspecified) | > 145 µM | 0.871 µM | –
CC(NC(=O)C(N)CC(=O)O)NC(=O)N(C)C(C)(C)C (stereo unspecified) | > 200 µM | > 200 µM | –
O=[N+]([O-])c1ccc2c(Nc3ccccc3-c3ccccc3Nc3c4ccccc4nc4cc([N+](=O)[O-])ccc34)c3ccccc3nc2c1 | > 2.29 µM | > 2.29 µM | –

SMILES | EC50 | IC50 | outcome
COc1cccc2c1OC1(C=C2)Oc2ccccc2C(=O)N1C (stereo unspecified) | > 200 µM | 30.9 µM | –
COC1CC(OC2C(C)OC(OC3C(C)OC(OC4C(O)CC(O[C@H]5CC[C@@]6(C)C(=CC[C@]7(O)[C@@H]6C[C@@H](OC(=O)/C=C/c6ccccc6)[C@@]6(C)[C@]7(O)CC[C@@]6(O)C(C)=O)C5)OC4C)CC3OC)CC2OC)OC(C)C1O (stereo partly specified) | > 200 µM | 37.2 µM | –
COc1cc(Nc2nc3ccc(C(F)(F)F)cc3nc2-c2ccccc2)cc(OC)c1OC | > 20.9 µM | > 20.9 µM | –
O=C(Nc1nc2ccccc2n1Cc1ccccc1)C(=O)NC12CC3CC(CC(C3)C1)C2 | > 43.7 µM | > 43.7 µM | –
CC1(C)CC(=O)CC(C)(C)ON1 | – | – | inactive
Cc1cc(C)cc(NC(=O)CCC(=O)C2CCC/C2=N\NC(=O)C(=O)NN)c1 (stereo unspecified) | > 67.6 µM | > 67.6 µM | –
CC(Oc1ccc(OCC2CCCCC2)cc1)C(=O)OCC(=O)c1ccc(-c2ccccc2)cc1 (stereo unspecified) | > 20.9 µM | > 20.9 µM | –
CC1CC(=O)c2c(ccc3c2C(=O)c2cccc(O)c2C3=O)C1 (stereo unspecified) | – | – | inactive
O=C1OC(=O)c2c1c(-c1ccccc1)nc1ccccc21 | > 107 µM | > 107 µM | –
O=[N+]([O-])c1cc(C2ON=C(c3ccccc3)N2C23CC4CC(CC(C4)C2)C3)ccc1Cl (stereo unspecified) | > 200 µM | 81.3 µM | –
O=C1OC2C(O)OC3COC(=O)c4cc(O)c(O)c(O)c4-c4c(O)c(O)c5oc(=O)c6c(c(O)c(O)c7oc(=O)c4c5c76)-c4c(cc(O)c(O)c4O)C(=O)OC3C2OC(=O)c2cc(O)c(O)c(O)c2-c2c1cc(O)c(O)c2O (stereo unspecified) | 0.724 µM | 21.4 µM | –
O=C1Cc2c([nH]c3cc(Br)ccc23)-c2ccccc2N1 | > 200 µM | 8.91 µM | –
CC1=NNC(=S)NCCCN2CCN(CCCNC(=S)NN=C(C)C=NNC(=S)NCCCN3CCN(CCCNC(=S)NN=C1)CC3)CC2 | > 123 µM | > 123 µM | –
COc1ccc(CNc2cnc3ccc(N)cc3n2)cc1OC | > 115 µM | > 115 µM | –
CCc1n[nH]c(=O)n1N | – | – | inactive
CC1(C)CC(=O)C(C=NC(=S)c2ccccc2)=C(O)C1 | > 200 µM | > 200 µM | –
NC1(C(=O)O)CCCCC1c1ccccc1 (stereo unspecified) | > 42.7 µM | > 42.7 µM | –
CCOC(=O)C(=C=Cc1cccs1)C(=O)c1ccccc1 | > 120 µM | 53.7 µM | –
C=C(Br)CN(C(C)=O)C1CCCCC1 | > 200 µM | > 200 µM | –
COCCCNC1=C(C#N)C(=O)NC(c2cccc([N+](=O)[O-])c2)S1 (stereo unspecified) | > 269 µM | 39.8 µM | –
